According to ChEMBL document CHEMBL5500355, “Quantum chemistry calculation-aided discovery of potent small-molecule mimics of glutathione peroxidases for the treatment of cisplatin-induced hearing loss” (Eur J Med Chem, 2024):
Converted amounts (≈) assume the structure as drawn. The source made the active and inactive calls.

Legend:
[1] = Glutathione peroxidase like activity of compound assessed as fold increase by measuring reduction in NADPH level at 10 uM by microplate reader assay relative to SPI-1005; format: ADME
[2] = Glutathione peroxidase like activity of compound assessed as fold increase by measuring reduction in NADPH level at 100 uM by microplate reader assay relative to SPI-1005; format: ADME
[3] = species on record: Mus musculus; assay: Inhibition of cisplatin induced hair loss in neonatal C57BL/6 mouse cochlear explants assessed as reduction in cochlear hair cells loss in base turns pretreated with compound for 2 hrs followed by cisplatin addition and measured after 24 hrs post cisplatin treatment; format: functional; conditions: Cochlea, time 26.0 hrs
[4] = Solubility of compound in water by liquid chromatography method; format: physicochemical
[5] = species on record: Mus musculus; assay: Inhibition of cisplatin induced hair loss in neonatal C57BL/6 mouse cochlear explants assessed as reduction in cochlear hair cells loss in middle turns pretreated with compound for 2 hrs followed by cisplatin addition and measured after 24 hrs post cisplatin treatment; format: functional; conditions: Cochlea, time 26.0 hrs
[6] = species on record: Mus musculus; assay: Inhibition of cisplatin induced hair loss in neonatal C57BL/6 mouse cochlear explants assessed as reduction in cochlear hair cells loss in apex turns pretreated with compound for 2 hrs followed by cisplatin addition and measured after 24 hrs post cisplatin treatment; format: functional; conditions: Cochlea, time 26.0 hrs
[7] = tested on: Mus musculus; assay: Prevention of cisplatin induced hearing loss in C57BL/6 mouse assessed as reduction in ABR threshold increase at 80 mg/kg, po administered daily for one week with simultaneous cisplatin addition on day 3 and 7 and measured after 1 week post last cisplatin treatment; format: functional, organism-based; conditions: time 2.0 weeks
[8] = species on record: Mus musculus; assay: Inhibition of cisplatin induced ferroptosis in neonatal C57BL/6 mouse cochlear explants assessed as reduction in mitochondrial iron accumulation at 100 uM by Mito-FerroGreen staining based confocal microscopy analysis; format: functional, organism-based; conditions: Cochlea
[9] = tested on: 6-10B; assay: Effect on cisplatin induced antitumor activity in human 6-10B cells by CCK8 assay; format: functional, cell-based
[10] = tested on: Mus musculus; assay: Protection against cisplatin induced oxidative stress in C57BL/6 mouse assessed as reduction in TNF-alpha level at 80 mg/kg, po administered daily for one week with simultaneous cisplatin addition on day 3 and 7 and measured after 1 week post last cisplatin treatment by ELISA; format: functional, organism-based; conditions: time 2.0 weeks
[11] = species on record: Mus musculus; assay: Inhibition of cisplatin induced apoptosis in neonatal C57BL/6 mouse cochlear explants assessed as reduction in cleaved caspase 3 positive hair cells in apex turn of cochlea at 100 uM by parvalbumin staining based assay; format: functional
[12] = tested on: Tu 686; assay: Effect on cisplatin induced antitumor activity in human Tu 686 cells by CCK8 assay; format: functional, cell-based
[13] = tested on: Mus musculus; assay: Prevention of cisplatin induced hair loss in C57BL/6 mouse at 80 mg/kg, po administered daily for one week with simultaneous cisplatin addition on day 3 and 7 and measured after 1 week post last cisplatin treatment by myosin 7a-staining based assay; format: functional, organism-based; conditions: time 2.0 weeks
[14] = tested on: HeLa; assay: Effect on cisplatin induced antitumor activity in human HeLa cells by CCK8 assay; format: functional, cell-based
[15] = species on record: Mus musculus; assay: Inhibition of cisplatin induced apoptosis in neonatal C57BL/6 mouse cochlear explants assessed as reduction in cleaved caspase 3 positive hair cells in basal turn of cochlea at 100 uM by parvalbumin staining based assay; format: functional
[16] = species on record: Mus musculus; assay: Inhibition of cisplatin induced oxidative stress in neonatal C57BL/6 mouse cochlear explants at 100 uM by MitoSOX Red staining based confocal fluorescence microscope analysis; format: functional, organism-based; conditions: Cochlea
[17] = species on record: Mus musculus; assay: Inhibition of cisplatin induced apoptosis in neonatal C57BL/6 mouse cochlear explants assessed as reduction in cleaved caspase 3 positive hair cells in middle turn of cochlea at 100 uM by parvalbumin staining based assay; format: functional
[18] = tested on: Mus musculus; assay: Protection against cisplatin induced oxidative stress in C57BL/6 mouse assessed as increase in SOD level at 80 mg/kg, po administered daily for one week with simultaneous cisplatin addition on day 3 and 7 and measured after 1 week post last cisplatin treatment by ELISA; format: functional, organism-based; conditions: time 2.0 weeks
[19] = tested on: Mus musculus; assay: Protection against cisplatin induced oxidative stress in C57BL/6 mouse assessed as reduction in IL-6 level at 80 mg/kg, po administered daily for one week with simultaneous cisplatin addition on day 3 and 7 and measured after 1 week post last cisplatin treatment by ELISA; format: functional, organism-based; conditions: time 2.0 weeks
[20] = tested on: Mus musculus; assay: Protection against cisplatin induced oxidative stress in C57BL/6 mouse assessed as reduction in MDA level at 80 mg/kg, po administered daily for one week with simultaneous cisplatin addition on day 3 and 7 and measured after 1 week post last cisplatin treatment by ELISA; format: functional, organism-based; conditions: time 2.0 weeks

Row | SMILES | fold change (FC) [1] | fold change (FC) [2] | further results
1 | O=c1c2cccc(Br)c2[se]n1-c1ccncc1 | 7.7 | 3.4 | 
2 | COc1cccc2c(=O)n(-c3ccncc3)[se]c12 | 7.4 | 3 | 
3 | COc1ccccc1-n1[se]c2ccccc2c1=O | 0.9 | 1.1 | 
4 | O=c1c2cccc(F)c2[se]n1-c1ccccc1 | 4.5 | 2.5 | 
5 | COc1cccc2c(=O)n(-c3ccccc3)[se]c12 | 7.4 | 4.2 | inhibition [3]: Active; solubility [4]: 2.5 µg/mL (≈ 8.22 µM); inhibition [5]: Active; inhibition [6]: Active
6 | COc1ccc2c(=O)n(-c3ccccc3)[se]c2c1 | 0.2 | 0.5 | 
7 | O=c1c2cccc([N+](=O)[O-])c2[se]n1-c1ccccc1 | 7.2 | 3.3 | 
8 | Cc1cccc2c(=O)n(-c3ccccc3)[se]c12 | 4.6 | 2.5 | 
9 | COc1ccc2[se]n(-c3ccccc3)c(=O)c2c1 | 0.5 | 0.8 | 
10 | O=c1c2cccc(Br)c2[se]n1-c1ccccc1 | 8.8 | 3.5 | inhibition [3]: Active; inhibition [5]: Active; inhibition [6]: Active
11 | O=c1c2ccc(Br)cc2[se]n1-c1ccccc1 | 0.7 | 0.6 | 
12 | O=c1c2cccc(Cl)c2[se]n1-c1ccccc1 | 8.6 | 3.5 | 
13 | COc1cccc2c(=O)n(-c3ccccn3)[se]c12 | 6.9 | 3.8 | 
14 | COc1cccc2c(=O)n(-c3cccnc3)[se]c12 | 7.7 | 3.5 | inhibition [3]: Active; Activity [7]: Active; inhibition [8]: Active; Activity [9]: inactive; solubility [4]: 1800 µg/mL (≈ 5900 µM); inhibition [5]: Active; Activity [10]: Active; inhibition [11]: Active; Activity [12]: inactive; Activity [13]: Active; Activity [14]: inactive; inhibition [15]: Active; inhibition [16]: Active; inhibition [17]: Active; Activity [18]: Active; Activity [19]: Active; Activity [20]: Active; inhibition [6]: Active
15 | COc1cccc2[se]n(-c3ccccc3)c(=O)c12 | 1.8 | 1.2 | 
16 | COc1cccc(-n2[se]c3ccccc3c2=O)c1 | 0.7 | 1 | 
17 | O=c1c2ccccc2[se]n1-c1ccccc1 |  |  | inhibition [3]: Active; Activity [7]: Active; inhibition [8]: Active; inhibition [5]: Active; Activity [10]: Active; Activity [13]: Active; Activity [18]: Active; Activity [19]: Active; Activity [20]: Active; inhibition [6]: Active
18 | O=c1c2cc(Br)ccc2[se]n1-c1ccccc1 | 0.5 | 1.1 | 
19 | O=c1c2cccc(Br)c2[se]n1-c1cccnc1 | 9.8 | 3.5 | inhibition [3]: Active; inhibition [5]: Active; inhibition [6]: Active
20 | O=c1c2cccc(Br)c2[se]n1-c1ccccn1 | 9.1 | 4.7 | 
21 | COc1ccc(-n2[se]c3ccccc3c2=O)cc1 | 1.3 | 1.1 | 
